Data set [1] deals with rabbit liver esterase. Kind of data set: Decomposition of glutathione derivatives by rabbit liver esterase (physiological stability). It counts as in vitro ADME. The conditions noted are these: BSA/D-PBS pH 7.4, 196-244 μg/ml. The protocol: (§1) (1) Bovine serum albumin (hereinafter referred to as BSA), Dulbecco's phosphate buffered saline (hereinafter referred to as D-PBS), swine liver esterase, and rabbit liver esterase were purchased from Sigma, 6-week old male SD rats were purchased from Nippon SLC, and 12-week old or older male Japanese white rabbits were purchased from Ichikawaya. On the day of the incubation experiment described below, blood was drawn from the animals in the presence of heparin, and plasma was separated therefrom for use. Human plasma was obtained from normal healthy males after obtaining their consent.
(§2) (2) The glutathione derivatives described in the Examples and Comparative Examples of the present invention were incubated for a fixed time in an enzyme solution having the following composition. Acetonitrile was added to the reaction mixture to inactivate the enzyme thereby to stop the reaction. The concentration of the glutathione derivatives in the deproteinized supernatant was measured by HPLC. For each time point of the esterase enzyme experiment, the mean values from two measurement or more were determined, and for the rats and rabbits the mean values of plasma samples from three individuals were determined. For some of the experiment data, changes with time of percentages relative to initial concentration of the glutathione derivative are shown in FIGS. 2 to 4.
(§3) Swine liver esterase and rabbit liver esterase experiment
(§4) 30 mg-BSA/ml-D-PBS (pH 7.4): 36 to 45 parts
(§5) Swine or rabbit liver esterase/D-PBS: 4-5 parts
(§6) 10 mg-glutathione derivative/ml-ethanol: one part (the final concentration in the reaction mixture is 196-244 μg/ml)

Data set [2] in a line: Pharmacokinetics after intravenous administration to rabbits, 2-compartment model (Example 25). Type of data set: in vivo, rabbit. The conditions noted are these: iv auricular vein 2 ml/kg, fat emulsion (Comparative Ex. 1: HPCD/glucose solution). From the text:
For the glutathione derivative of the present invention having a long-chain ester having 12 carbons or more and the glutathione derivatives of the conventional technology of Comparative Examples 1 and 2, kinetics in the blood were compared in rabbits that are a species having allow esterase activity in the blood.
(1) Male Japanese white rabbits, 12-week old or older, were purchased from Ichikawaya, and those rabbits that became 15-week old or older and whose body weight reached about 3 kg were used for the experiment. During the period up to the experiment, the animals were allowed free access to the animal feed and drinking water and were kept at a temperature of 24±2° C. and a humidity of 55±5%.
(2) The glutathione derivative having a long-chain ester of 12 carbons or more and the glutathione derivative of Comparative Example 2 were prepared at 20-200 mg/ml in a mixture of ethanol or ethanol:benzyl alcohol, which was mixed with the fat emulsion just prior to use, and was filtered with a 1.2 μm filter to obtain a liquid for intravenous administration. On the other hand, the glutathione derivative of Comparative Example 1 was dissolved in an aqueous solution of 6%-hydroxypropyl-β-cyclodextrin/5%-glucose at 15 mg/ml to obtain an administration liquid.
(3) The administration liquid of the glutathione derivative obtained in (2) at a dose of 2 ml/kg was rapidly infused into the left auricular vein of the rabbits under no anesthesia and under restraint at a rate of 1 ml/min. Each glutathione derivative was given to three or more rabbits. At 5, 10, 15, 30, 60, 120, and 240 minutes after the completion of the administration, 1 ml of the blood was drawn from the right auricular vein in the presence of heparin, which was immediately cooled on ice. Plasma was obtained by centrifuging the blood, 1-2 volume parts of acetonitrile was added to deproteinize the supernatant, which was filtered by a 0.5 μm filter. The supernatant of the filtrate was quantitated by HPLC.

Data set [3] concerns swine liver esterase. Kind of data set: Decomposition of glutathione derivatives by swine liver esterase (physiological stability). The conditions noted are these: BSA/D-PBS pH 7.4, 196-244 μg/ml. It counts as in vitro ADME. The protocol:
as §1, §2, §3, §4, §5, §6

In data set [4] the test system is rat models of suppressed hematopoietic function by 5-FU administration. Put plainly: Ratio of segmented neutrophils in rat models of suppressed hematopoietic function by 5-FU (Example 27). It counts as in vivo. The conditions noted are these: 5-FU rats. The protocol:
(1) The animals used are the same as in Example 26. The keeping condition was a temperature of 23±2° C. and a humidity of 55±15%.
(2) The creation of the 5-FU administration model, the administration of test substances, and the blood collection schedule were carried out in a similar manner to Example 26. Hematological tests were carried out using the Toa multi-channel automatic cell counter K-4500 or Toa Sysmex CC-180A automatic cell counter, differential counts of white blood cells were carried out by May-Giemsa stain followed by microscopic examination, reticulocytes were counted by the Brecher method.
(3) Using the same schedule as in Example 26, the negative control group that only received the fat emulsion after 5-FU administration, the group that received the glutathione derivative of Example 4 at 30 mg/kg-body weight/day as a test substance together with the fat emulsion, the group that similarly received the glutathione derivative of Example 1 at 10 or 30 mg/kg-body weight/day, and the group that received the glutathione derivative of Example 7 at 30 or 60 mg/kg-body weight/day were studied.

Data set [5] is described as follows: Stability in rabbit plasma. As to the method: as §1, §2
Rat, rabbit, and human plasma
Heparinized plasma: 30 to 40 parts
10 mg-glutathione derivative/ml-ethanol: one part (the final concentration in the reaction mixture is 250-323 μg/ml)

Data set [6] concerns rat models of suppressed hematopoietic function by 5-FU administration. Kind of data set: Recovery of neutrophil counts in rat models of suppressed hematopoietic function by 5-FU (Example 26). Type of data set: in vivo. The conditions noted are these: 5-FU rats; 10 μg/kg-body weight/day, days 2-10; day 4 and from day 8. From the text:
Regarding the effect of promoting the recovery of neutrophil counts in rat models of suppressed hematopoietic function by 5-fuluorouracil administration, statistical significance was compared to the control group to compare the pharmaceutical composition containing Example 4 of the present invention as an active ingredient with the pharmaceutical composition of the conventional technology of Comparative Example 1 and granulocyte colony-stimulating factor (G-CSF).
(1) Animals used and the keeping condition: Male SD rats, 6-week old, purchased from Nippon SLC were used. The animal feed (manufactured by Oriental Yeast Co., Ltd.) and drinking water (well water treated with 0.4±0.2 ppm hypochlorous acid) were given ad libitum during the period of the experiment. The animals were housed in a hanging-type rat cage (manufactured by Nippon Cage K.K.) and kept at a temperature of 24±2° C. and a humidity of 55±5%.
(2) Creation of rat models of suppressed hematopoietic function by 5-FU administration; Creation of rat models of suppressed hematopoietic function by 5-FU (Kyowa Hakko Kogyo Co. Ltd.) administration was carried out based on the method of Akamatsu et al. (Yakuri to Chiryo(Pharmacology and Therapy), 18. (Suppl. 9), 317-356 (1990)). Thus, on the first day of the experiment, 5-FU at 50 mg/kg-body weight (dosage volume is 1 ml/kg-body weight) or the same amount of physiological saline (manufactured by Fuso Pharmaceuticals Industries, Ltd.) was intraperitoneally administered to the rats described in (1). On days 4, and 7-12, blood was drawn from the jugular vein and the EDTA-2K-treated blood was obtained. The blood was used to determine the neutrophil count using a general chemistry test instrument (Technicon H-1E, manufactured by Bayer-Sankyo K.K.) and the ratio of reticulocytes using a reticulocyte determination instrument (EPICS, XL-MCL, manufactured by Coulter K.K.). Blood was also drawn on day 1 of the experiment, and the values determined for the blood were used as the pre-administration values.
In the physiological saline administration group, no changes in neutrophil count were observed throughout the experiment period, whereas in the 5-FU administration group there was a reduction in neutrophil count with the lowest value observed on day 8 of the experiment, and the neutrophil count was recovered to the value before 5-FU administration or higher on day 10 of the experiment or after. The above results confirmed that rat models of suppressed hematopoietic function can be created by a single intraperitoneal administration of 5-FU at 50 mg/kg-body weight.
(3) Evaluation of Example 4 and Comparative Example 1 in the above model; To the model described in (2), the glutathione derivative of Example 4 combined with the fat emulsion at 10 to 30 mg/kg-body weight/day or the glutathione derivative of Comparative Example 1 dissolved in a physiological saline containing 2.5% hydroxypropyl-β-cyclodextrin at 50 mg/kg-body weight/day was repeatedly administered into the tail vein for 9 days from day 2 to 10 of the experiment. The recombinant human G-CSF formulation (hereinafter referred to as G-CSF, manufactured by Chugai Pharmaceutical Co., Ltd.) as the positive control at 10 μg/kg-body weight/day and the empty fat emulsion as the negative control were administered in a similar manner. […]

Setting [7] is: 30 mg/kg-body weight/day with fat emulsion.
The mark [8] stands for this setting: heparinized plasma, 250-323 μg/ml.

As for `CCCCCCCCCCCCOC(=O)[C@@H](N)CCC(=O)N[C@@H](CSCc1ccccc1)C(=O)N[C@@H](C(=O)OCC)c1ccccc1.Cl` [Example 7, Glu(Cys(Bzl)-D-Phg-OEt)-O(Dodecyl)hydrochloride], in data set [1], the “Decomposition rate constant by rabbit liver esterase” value is 21.1 10^−4/unit/min. For the same molecule, in data set [2], the “Clearance per body weight” value came out at 47.5 mL/min/kg and the “Distribution volume per body weight of the central compartment” value (“Distribution volume per body weight” below) stood at 0.47 L/kg. Further, the “Decomposition rate constant by swine liver esterase” value in data set [3] is recorded as 15.2 10^−4/unit/min. In addition, the “Recovery of segmented neutrophil counts relative to the negative control” value in data set [4] (setting [7]) is “no changes relative to the negative control”. Moreover, in data set [4] (60 mg/kg-body weight/day with fat emulsion, days 11 and 12), the “Recovery of neutrophil counts relative to the negative control” value is on record as “tendency of promoting the recovery of neutrophil counts”. For the same molecule, the “Half life in rabbit plasma” value in data set [5] (setting [8]) came to 5.38 h.
Turning to `CCCCCCCCCCCCCCOC(=O)[C@@H](N)CCC(=O)N[C@@H](CSCc1ccccc1)C(=O)N[C@@H](C(=O)OCC)c1ccccc1.Cl` [Example 6, Glu(Cys(Bzl)-D-Phg-OEt)-O(Tetradecyl)hydrochloride], the “Decomposition rate constant by rabbit liver esterase” value in data set [1] was 5.11 10^−4/unit/min. Besides, in data set [2], the “Clearance per body weight” value turned out to be 4.83 mL/min/kg and the “Distribution volume per body weight” value is listed as 0.08 L/kg. In data set [3], the “Decomposition rate constant by swine liver esterase” value was 2.61 10^−4/unit/min. For the same molecule, the “Half life in rabbit plasma” value in data set [5] (setting [8]) turned out to be 18.07 h.
For the molecule `CCCCCCCCCCCCCCCCCCOC(=O)[C@@H](N)CCC(=O)N[C@@H](CSCc1ccccc1)C(=O)N[C@@H](C(=O)OCC)c1ccccc1.Cl` [Example 1, Glu(Cys(Bzl)-D-Phg-OEt)-O(Octadecyl)hydrochloride], the “Decomposition rate constant by rabbit liver esterase” value in data set [1] is 0.300 10^−4/unit/min. Moreover, the “Clearance per body weight” value in data set [2] worked out at 0.5 mL/min/kg. Besides, the “Distribution volume per body weight” value in data set [2] came out at 0.06 L/kg. Further, the “Decomposition rate constant by swine liver esterase” value in data set [3] is given as 0.0901 10^−4/unit/min. Further, the “Recovery of segmented neutrophil counts relative to the negative control” value in data set [4] (10 mg/kg-body weight/day with fat emulsion) and in data set [4] (setting [7]) was “tendency of promoting the recovery of segmented neutrophil counts” in each case. The “Half life in rabbit plasma” value in data set [5] (setting [8]) was determined as 408.57 h.
`CCCCCCCCCCOC(=O)[C@H](NC(=O)[C@H](CSCc1ccccc1)NC(=O)CC[C@H](N)C(=O)OCC)c1ccccc1.Cl` [Comparative Example 4, Glu(Cys(Bzl)-D-Phg-O(Decyl))-OEt Hydrochloride, reference compound]: the “Decomposition rate constant by rabbit liver esterase” value in data set [1] is reported as 54.2 10^−4/unit/min. For the same molecule, the “Decomposition rate constant by swine liver esterase” value in data set [3] is 88.5 10^−4/unit/min. Besides, in data set [5] (rabbit, plasma), the “Half life in rabbit plasma” value was 3.02 h.

B1: G-CSF: recombinant human G-CSF formulation, manufactured by Chugai Pharmaceutical Co., Ltd., positive control (protein, UniProt P09919 31-207, looked up)
Granulocyte …: TPLGPASSLPQSFLLKCLEQVRKIQGDGAALQEKLVSECATYKLCHPEELVLLGHSLGIPWAPLSSCPSQALQLAGCLSQLHSGLFLYQGLLQALEGISPELGPTLDTLQLDVADFATTIWQQMEELGMAPALQPTQGAMPAFASAFQRRAGGVLVASHLQSFLEVSYRVLRHLAQP
In the case of B1, the “Neutrophil counts relative to the negative control group” value in data set [6] was “statistically significant increase in neutrophil counts”.

(Values after US6627732B1, “Glutathione derivatives and their dosage forms” (Teijin Limited, priority 1998, dated 2003).)
